Measurements from PMC11571031 (Protein Science : A Publication of the Protein Society, 2024).

Columns and labels:
CbTan2 = CbTan2 (Clostridium butyricum, UniProt A0A6M0U600)
CbTan1 = CbTan1 (Clostridium butyricum, UniProt C4IC90)
Sequence of CbTan1 (C4IC90 25-633 limits assumed): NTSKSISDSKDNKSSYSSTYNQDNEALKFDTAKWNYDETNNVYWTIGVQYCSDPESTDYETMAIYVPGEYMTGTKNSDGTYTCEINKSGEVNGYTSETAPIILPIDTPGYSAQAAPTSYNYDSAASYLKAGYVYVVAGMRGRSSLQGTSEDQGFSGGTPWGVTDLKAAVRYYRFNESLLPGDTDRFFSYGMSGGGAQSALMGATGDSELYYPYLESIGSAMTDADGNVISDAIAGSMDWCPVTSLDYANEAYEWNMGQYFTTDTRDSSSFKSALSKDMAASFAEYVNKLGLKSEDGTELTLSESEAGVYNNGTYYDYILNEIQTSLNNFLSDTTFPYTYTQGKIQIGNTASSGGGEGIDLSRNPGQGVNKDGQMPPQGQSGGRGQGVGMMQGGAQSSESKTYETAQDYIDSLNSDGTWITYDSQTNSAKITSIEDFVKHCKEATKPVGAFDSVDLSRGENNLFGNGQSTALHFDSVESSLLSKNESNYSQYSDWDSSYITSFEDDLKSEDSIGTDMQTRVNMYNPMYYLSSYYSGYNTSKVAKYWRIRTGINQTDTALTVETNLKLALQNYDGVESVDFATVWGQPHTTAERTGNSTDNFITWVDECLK

Sequence of CbTan2 (A0A6M0U600 1-490 limits assumed): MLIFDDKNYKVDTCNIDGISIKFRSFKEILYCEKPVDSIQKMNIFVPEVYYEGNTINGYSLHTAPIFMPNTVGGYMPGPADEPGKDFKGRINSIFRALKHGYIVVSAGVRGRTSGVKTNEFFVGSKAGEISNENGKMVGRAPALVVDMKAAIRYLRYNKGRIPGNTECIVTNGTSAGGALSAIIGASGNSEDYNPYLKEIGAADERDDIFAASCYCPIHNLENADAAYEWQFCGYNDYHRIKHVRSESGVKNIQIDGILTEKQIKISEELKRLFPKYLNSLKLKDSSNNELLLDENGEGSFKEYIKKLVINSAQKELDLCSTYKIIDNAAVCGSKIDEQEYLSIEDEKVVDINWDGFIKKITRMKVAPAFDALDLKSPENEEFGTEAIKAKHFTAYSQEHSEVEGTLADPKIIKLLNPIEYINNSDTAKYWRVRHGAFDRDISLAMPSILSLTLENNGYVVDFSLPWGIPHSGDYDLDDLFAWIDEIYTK

Row | Compound | K i (mM) ^a (CbTan2) | K i (mM) ^a (CbTan1)
1 | O=C(O[C@@H]1Cc2c(O)cc(O)cc2O[C@@H]1c1cc(O)c(O)c(O)c1)c1cc(O)c(O)c(O)c1 [EGCG, epigallocatechin gallate] | 1.92 ± 0.59 mM | 1.11 ± 0.54 mM
2 | O=C(O[C@@H]1O[C@H](CO)[C@@H](O)[C@H](O)[C@H]1O)c1cc(O)c(O)c(O)c1 [GG, β-glucogallin] | 8.51 ± 2.39 mM | 35.9 ± 6.77 mM
3 | COC(=O)c1cc(O)c(O)c(O)c1 [MG, methyl gallate] | 44.0 ± 6.42 mM | 
